{"source": "paper PMC5923142", "about": "“Selection and Characterization of Rupintrivir-Resistant Norwalk Virus Replicon Cells In Vitro” (Antimicrobial Agents and Chemotherapy, 2018)", "key": {"[1]": {"system": "rupintrivir-resistant Norwalk virus replicon", "assay": "Susceptibility of rupintrivir-resistant replicon cells, all clones (qRT-PCR)", "format": "cell-based, Human norovirus (HuNoV) GI", "conditions": "resistant clones vs DMSO-passaged cells", "experimental": "Given the potent effects of rupintrivir on HGT-NV cells, we sought to determine whether rupintrivir-resistant replicons could be generated. To this end, HGT-NV cells were treated with 5 μM rupintrivir for 12 days in the absence of G418 selection, followed by subsequent passages in the presence of G418 with increasing concentrations of rupintrivir for up to 45 days (Fig. 1D). This approach yielded three lineages of replicon cells which were resistant to 10, 15, and 20 μM rupintrivir. To identify the mutations conferring the resistance to rupintrivir, we isolated cell clones by limiting dilution using replicon cells surviving after 45 days of culture and then evaluated the rupintrivir sensitivity of the replicon cells. […] All clones treated with 10 μM rupintrivir had the I109V single amino acid substitution, while the A105V/I109V double amino acid substitution was observed only in clones treated with 15 and 20 μM rupintrivir. […]\nThe inhibitory effect of rupintrivir on HuNoV replication was assessed by quantification of the levels of GI NuNoV RNA and β-actin RNA as the reference gene. […] The real-time quantitative reverse transcription-PCR (qRT-PCR) assay was performed by using a One-Step Plus qRT-PCR kit according to the protocol of the manufacturer (Primer Design). […] Relative quantification was performed using the 2^−ΔΔCT threshold cycle (CT) method ([38]). […]"}, "Norwalk virus replicon": {"system": "Norwalk virus replicon", "assay": "Colony formation assay with HGT-NV cells after 12 days of treatment", "format": "cell-based, Human norovirus (HuNoV) GI", "conditions": "then 1 week G418 1.5 mg/ml without drug", "experimental": "HGT-NV cells treated with rupintrivir or DMSO for 12 days in the absence of G418 were plated into 6-well plates in complete DMEM and maintained without rupintrivir in the presence of G418 (1.5 mg/ml). After 1 week of incubation, the colonies on the plate were stained with 0.1% toluidine blue and photographed."}, "GV A105V protease": {"target": "T1, GV A105V protease (Norovirus, UniProt Q80J95, A1099V)", "T1 construct": "plasmids expressing norovirus protease from GI.1 (M87661), GII.4 (DQ658413), or GV (DQ285629) norovirus; expressed in transfected cells; host or cells: HEK293T", "T1 sequence (Q80J95 995-1177 A1099V)": "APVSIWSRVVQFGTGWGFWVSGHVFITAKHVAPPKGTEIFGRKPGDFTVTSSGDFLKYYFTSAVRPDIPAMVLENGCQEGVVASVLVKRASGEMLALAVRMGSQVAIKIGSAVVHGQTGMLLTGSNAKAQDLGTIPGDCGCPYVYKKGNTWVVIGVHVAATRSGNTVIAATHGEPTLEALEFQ", "assay": "Cell-based FRET assay, GV A105V protease", "set-up": "species or system murine norovirus (MNV) GV (DQ285629)", "conditions": "GV A105V vs GV WT", "excerpt": "(§1) The generation of plasmids expressing norovirus protease from GI.1 (M87661), GII.4 (DQ658413), or GV (DQ285629) norovirus and FRET assay constructs has been described previously ([18]). The plasmids carrying GI, GII, and GV proteases with the A105V, I109V, or A105V/I109V mutation were generated from the wild-type (WT) protease constructs described above by the QuikChange site-directed mutagenesis method. Mutant MNV genomes for reverse genetics were generated by two-step PCR mutagenesis of the WT MNV genome (pT7 MNV 3RZ) construct as described previously ([27]). The primers used for generation of the plasmids are listed in Tables S1 and S2 in the supplemental material.\n(§2) The YFP/CFP ratio was used to determine FRET efficiency, as described previously ([18], [40]). Briefly, HEK293T cells were plated into black 96-well cell culture microplates (Greiner Bio-One) at a density of 5 × 10^4 cells/well in 100 μl of DMEM containing 10% fetal bovine serum with or without various concentrations of rupintrivir and then incubated for 4 h in a CO2 incubator at 37°C. […] The plates were then analyzed on a SpectraMax i3 instrument in fluorescence mode, with excitation set at 434 nm and the reading emissions set at 477 nm (CFP) and 527 nm (YFP). The background fluorescence from wells transfected with pcDNA3.1 was determined and subtracted. […]"}, "GII mutant proteases": {"system": "GII mutant proteases", "assay": "Cell-based FRET assay, GII mutant proteases (A105V, I109V, A105V/I109V)", "set-up": "species or system norovirus GII.4 (DQ658413)", "conditions": "A105V/I109V vs GII WT, HEK293T cells", "excerpt": "as §1, §2"}}, "note": "Entries after “also recorded” stand apart in the source; their conditions may differ.", "data": [{"smiles": "CCOC(=O)/C=C/[C@H](C[C@@H]1CCNC1=O)NC(=O)[C@@H](CC(=O)[C@@H](NC(=O)c1cc(C)on1)C(C)C)Cc1ccc(F)cc1", "note": "[rupintrivir, Rupintrivir]", "values": [{"measurement": "fold reduced sensitivity", "setting": "[1]", "value": "4- to 11 fold"}, {"measurement": "colony formation", "setting": "Norwalk virus replicon; 2.5 μM for 12 days", "value": "some colonies remained"}, {"measurement": "colony formation", "setting": "Norwalk virus replicon; 5 μM for 12 days", "value": "some colonies remained"}, {"measurement": "colony formation", "setting": "Norwalk virus replicon; 10 μM for 12 days", "value": "completely prevent colony formation"}, {"measurement": "impact of substitution on susceptibility", "setting": "GV A105V protease", "value": "no appreciable impact"}, {"measurement": "effect of substitutions on the IC50", "setting": "GII mutant proteases", "value": "no measurable effect; also recorded: no significant differences"}]}]}
